{
  "source": "patent US20050032858A1",
  "about": "“Novel heterocyclic compound and anti-inflamatory agent” (priority 2001, published 2005)",
  "key": {"[1]": {"test_system": "acetic acid induced writhes", "test": "Acetic acid writhing", "assay_type": "in vivo, ICR-strain male mouse", "details": "i.p., 30 minutes before, vehicle control 25.2 ± 2.2", "description": "This test was carried out referring to the methods of Inoue, K., Motonaga, A. and Nishimura, T. [Arzneimittel Forshung/Drug Research 41 (1): 235-239 (1991)] and of Murata, T., et al. [Nature 388: 678-682 (1997)]: 7.5 mL/kg of a 0.9% aqueous solution of acetic acid was injected intraperitoneally into an ICR-strain male mouse (6 to 8 weeks old). The number of induced writhes (characteristic behavior of contracting the abdomen, twisting the body and/or extending the hind legs in agony) was counted in a period between 10 minutes and 20 minutes after the injection. A compound of the present invention was homogeneously suspended in 2% Tween 80/saline for injection use and injected intraperitoneally 30 minutes before the induction of stimulation by the acetic acid injection. Alternatively the compound was homogeneously suspended in 2% Tween 80/distilled water and orally administered an hour before the stimulation induction by the acetic acid injection. The analgesic activity of the compound of the present invention was evaluated on the basis of how many writhes were suppressed by the administration. Indomethacin or aspirin was administered as the positive control."}, "[2]": {"test_system": "mouse ear edema induced by TPA", "assay_type": "in vivo, ICR-strain male mouse", "details": "topical, measured 6 hours after TPA", "description": "This test was carried out referring to the methods of Carlson, R. P., et al. [Agents and Actions 17 (2): 197-204 (1985)] and of Chang, J., et al. [European Journal of Pharmacology 142: 197-205 (1987)]: 5 μg/20 μL of TPA (Sigma Chemical Co., Ltd.) dissolved in ethanol was applied on the anterior and posterior surfaces of the right ear of an ICR-strain male mouse (6 to 7 weeks old). The thickness of a specific area of each of the ears was measured 3 times by a digimatic micrometer 6 hours after the application. The mean values were calculated. Ear edema was determined by subtracting the mean thickness of the non-treated left ear from that of the TPA-applied right ear. A topical application activity was evaluated in a way that an acetone solution or a 0.1% Tween 80/acetone solution of a compound of the present invention was applied on the anterior and posterior surfaces of the right ear 30 minutes before and 15 minutes after the application of TPA. […] An oral administration activity was evaluated by forced oral administration of a suspension of a compound of the present invention in 2% Tween 80/distilled water an hour before applying TPA. […]"}},
  "note": "Where two headings read alike, the source gives them in different places.",
  "data": [
    {"smiles": "CC(=O)Oc1ccccc1C(=O)O", "note": "[Aspirin, aspirin]", "values": [
      {"measurement": "No. of writhes (mean ± S.E.)", "setting": "[1]; 30 mg/kg", "value": "9.5 ± 2.0"}
    ]},
    {"smiles": "CC(=O)OCC(=O)[C@@]1(O)[C@H](C)C[C@H]2[C@@H]3CCC4=CC(=O)C=C[C@]4(C)[C@@]3(F)[C@@H](O)C[C@@]21C", "note": "[DEX-Ac, dexamediasone-21-acetate]", "values": [
      {"measurement": "Ear edema inhibition (%)", "setting": "[2]; 1 mg/20 μL/ear × 2", "value": 79.6, "unit": "%"}
    ]},
    {"smiles": "COc1ccc2c(c1)c(CC(=O)O)c(C)n2C(=O)c1ccc(Cl)cc1", "note": "[Indomethacin, indomethacin]", "values": [
      {"measurement": "Ear edema inhibition (%)", "setting": "[2]; 3 mg/40 μL/ear × 2", "value": 63.5, "unit": "%"},
      {"measurement": "No. of writhes (mean ± S.E.)", "setting": "[1]; 3 mg/kg", "value": "13.8 ± 3.0"},
      {"measurement": "No. of writhes (mean ± S.E.)", "setting": "[1]; 10 mg/kg", "value": "4.8 ± 0.9"}
    ]}
  ]
}
